Legend:
Test in all cases: microbe, parasite or virus in culture
Plasmodium falciparum [1] = conditions: F07-7, 72 h
Plasmodium falciparum [2] = conditions: F07-23, 72 h
Plasmodium falciparum [3] = conditions: F08B53, 72 h
Plasmodium falciparum [4] = conditions: F07-13, 72 h
Plasmodium falciparum [5] = conditions: F09A54, 72 h
Plasmodium falciparum [6] = conditions: F09A55, 72 h
Plasmodium falciparum [7] = conditions: F09A9, 72 h
Plasmodium falciparum [8] = conditions: F07-3, 72 h
Plasmodium falciparum [9] = conditions: F07-46, 72 h
Plasmodium falciparum [10] = conditions: F09N35, 72 h
Plasmodium falciparum [11] = conditions: F09N58, 72 h
Plasmodium falciparum [12] = conditions: F09N66, 72 h
Plasmodium falciparum [13] = conditions: F07-8, 72 h
Plasmodium falciparum [14] = conditions: F07-28, 72 h
Plasmodium falciparum [15] = conditions: F07-31, 72 h
Plasmodium falciparum [16] = conditions: F07-35, 72 h
Plasmodium falciparum [17] = conditions: F07-42, 72 h
Plasmodium falciparum [18] = conditions: F08B2, 72 h
Plasmodium falciparum [19] = conditions: F08B9, 72 h
Plasmodium falciparum [20] = conditions: F08B27, 72 h
Plasmodium falciparum [21] = conditions: F08B41, 72 h
Plasmodium falciparum [22] = conditions: F08B61, 72 h
Plasmodium falciparum [23] = conditions: F09A10, 72 h
Plasmodium falciparum [24] = conditions: F09A41, 72 h
Plasmodium falciparum [25] = conditions: F09A61, 72 h
Plasmodium falciparum [26] = conditions: F09N6, 72 h
Plasmodium falciparum [27] = conditions: F09N29, 72 h
Plasmodium falciparum [28] = conditions: F09N40, 72 h
Plasmodium falciparum [29] = conditions: F09N64, 72 h
Plasmodium falciparum [30] = conditions: F08B7, 72 h
Plasmodium falciparum [31] = conditions: F08B40, 72 h
Plasmodium falciparum [32] = conditions: W2, 72 h
Plasmodium falciparum [33] = conditions: K1, 72 h
Plasmodium falciparum [34] = conditions: 72 h
Description: Antimicrobial activity against Plasmodium falciparum harboring pfnhe1 ms4760 haplotype 9 carrying 3 copies of DNNND repeat and His/Asp ratio 7:6 infected in human erythrocytes after 72 hrs by SYBR green I-based fluorescence assay

Plasmodium falciparum [35] = conditions: 72 h; remark: listed apart in the source
Description: Antimicrobial activity against Plasmodium falciparum harboring pfnhe1 ms4760 haplotype 35 carrying 1 copy of DNNND repeat and His/Asp ratio 5:2 infected in human erythrocytes after 72 hrs by SYBR green I-based fluorescence assay

Plasmodium falciparum [36] = conditions: 72 h; remark: listed apart in the source
Description: Antimicrobial activity against Plasmodium falciparum harboring pfnhe1 ms4760 haplotype 3 carrying 1 copy of DNNND repeat and His/Asp ratio 6:2 infected in human erythrocytes after 72 hrs by SYBR green I-based fluorescence assay

For `C=C[C@H]1CN2CC[C@H]1C[C@H]2[C@H](O)c1ccnc2ccc(OC)cc12` [QUININE], the IC50 (Plasmodium falciparum [1]) was 0.456 µM, the IC50 (Plasmodium falciparum [2]) was 0.447 µM and the IC50 (Plasmodium falciparum [3]) was 0.468 µM. For the same compound, the IC50 (Plasmodium falciparum [4]) was 0.365 µM, the IC50 (Plasmodium falciparum [5]) was 0.243 µM and the IC50 (Plasmodium falciparum [6]) was 0.149 µM. For the same compound, the IC50 (Plasmodium falciparum [7]) was 0.562 µM, the IC50 (Plasmodium falciparum [8]) was 0.875 µM and the IC50 (Plasmodium falciparum [9]) was 0.894 µM. It also gave an IC50 (Plasmodium falciparum [10]) of 0.905 µM, an IC50 (Plasmodium falciparum [11]) of 0.448 µM and an IC50 (Plasmodium falciparum [12]) of 0.711 µM. It also gave an IC50 (Plasmodium falciparum [13]) of 0.874 µM, an IC50 (Plasmodium falciparum [14]) of 0.473 µM and an IC50 (Plasmodium falciparum [15]) of 0.433 µM. The IC50 (Plasmodium falciparum [16]) was 0.821 µM, the IC50 (Plasmodium falciparum [17]) was 0.388 µM and the IC50 (Plasmodium falciparum [18]) was 1.02 µM. The IC50 (Plasmodium falciparum [19]) was 0.218 µM, the IC50 (Plasmodium falciparum [20]) was 0.87 µM and the IC50 (Plasmodium falciparum [21]) was 0.886 µM. The IC50 (Plasmodium falciparum [22]) was 1.13 µM, the IC50 (Plasmodium falciparum [23]) was 0.716 µM and the IC50 (Plasmodium falciparum [24]) was 1.29 µM. The IC50 (Plasmodium falciparum [25]) was 0.373 µM, the IC50 (Plasmodium falciparum [26]) was 0.71 µM and the IC50 (Plasmodium falciparum [27]) was 0.853 µM. The IC50 (Plasmodium falciparum [28]) was 2.12 µM, the IC50 (Plasmodium falciparum [29]) was 0.475 µM and the IC50 (Plasmodium falciparum [30]) was 1.1 µM. It also gave an IC50 (Plasmodium falciparum [31]) of 0.26 µM, an IC50 (Plasmodium falciparum [32]) of 0.72 µM and an IC50 (Plasmodium falciparum [33]) of 0.407 µM. The IC50 (Plasmodium falciparum [34]) was 0.837 µM, the IC50 (Plasmodium falciparum [35]) was 0.26 µM and the IC50 (Plasmodium falciparum [36]) was 0.223 µM.
